Results published in PubChem BioAssay AID248 (DTP/NCI, 2004).
“And” between values parts separate entries of the source, which are not always exact repeats. Identical values can stand only once. Toxic doses and inconclusive results are not listed. Rule as the data show it: active = T/C of 150% or more; inactive = T/C below 125%.

Tested on: L1210 leukemia ip in BDF1 mice, survival T/C
Test: NCI In Vivo Anticancer Drug Screen. Data for tumor model L1210 Leukemia (intraperitoneal) in B6D2F1 (BDF1) mice
Conditions: endpoint: mean survival time, higher = longer survival
Summary of the method: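 Each compound was tested against a transplantable tumor grown in mice. The endpoint was survival, with treated animals benchmarked against vehicle controls as a simple ratio.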

[1] = dose: 100.0 mg/kg/injection, schedule: Q01DX001 (ip), vehicle: Klucel (hydroxypropylcellulose) (HPC)
[2] = dose: 100.0 mg/kg/injection, schedule: Q01DX009 (ip), vehicle: Klucel (hydroxypropylcellulose) (HPC)
[3] = dose: 100.0 mg/kg/injection, schedule: Q04DX002 (ip), vehicle: Klucel (hydroxypropylcellulose) (HPC)
[4] = dose: 100.0 mg/kg/injection, schedule: Q04DX003 (ip), vehicle: Klucel (hydroxypropylcellulose) (HPC)
[5] = dose: 200.0 mg/kg/injection, schedule: Q01DX001 (ip), vehicle: Klucel (hydroxypropylcellulose) (HPC)
[6] = dose: 200.0 mg/kg/injection, schedule: Q01DX009 (ip), vehicle: Klucel (hydroxypropylcellulose) (HPC)
[7] = dose: 200.0 mg/kg/injection, schedule: Q04DX002 (ip), vehicle: Klucel (hydroxypropylcellulose) (HPC)
[8] = dose: 200.0 mg/kg/injection, schedule: Q04DX003 (ip), vehicle: Klucel (hydroxypropylcellulose) (HPC)
[9] = dose: 400.0 mg/kg/injection, schedule: Q01DX001 (ip), vehicle: Klucel (hydroxypropylcellulose) (HPC)
[10] = dose: 400.0 mg/kg/injection, schedule: Q01DX009 (ip), vehicle: Klucel (hydroxypropylcellulose) (HPC)
[11] = dose: 400.0 mg/kg/injection, schedule: Q04DX002 (ip), vehicle: Klucel (hydroxypropylcellulose) (HPC)
[12] = dose: 400.0 mg/kg/injection, schedule: Q04DX003 (ip), vehicle: Klucel (hydroxypropylcellulose) (HPC)
[13] = dose: 100.0 mg/kg/injection, schedule: Q04DX003 (ip), vehicle: saline
[14] = dose: 100.0 mg/kg/injection, schedule: Q01DX001 (ip), vehicle: saline
[15] = dose: 200.0 mg/kg/injection, schedule: Q01DX001 (ip), vehicle: saline
[16] = dose: 400.0 mg/kg/injection, schedule: Q01DX001 (ip), vehicle: saline
[17] = dose: 100.0 mg/kg/injection, schedule: Q04DX003 (ip), vehicle: saline with Tween-80
[18] = dose: 200.0 mg/kg/injection, schedule: Q04DX003 (ip), vehicle: saline with Tween-80
[19] = dose: 400.0 mg/kg/injection, schedule: Q04DX003 (ip), vehicle: saline with Tween-80

Measured: T/C

CCOc1ccc(/C=N/NC(=O)c2ccccc2NC(=O)c2ccccc2Cl)cc1OC
inactive: [1] 93 % of control | [2] 97 % of control and 90 % of control | [3] 95 % of control and 103 % of control | [4] 92 % of control | [5] 98 % of control | [6] 90 % of control and 91 % of control | [7] 108 % of control and 92 % of control | [8] 97 % of control | [9] 93 % of control | [10] 94 % of control and 88 % of control | [11] 97 % of control and 92 % of control | [12] 92 % of control

CSc1ccc(OC(=O)Nc2ccccc2[N+](=O)[O-])cc1C
inactive: [2] 109 % of control | [6] 94 % of control | [10] 92 % of control

CCC(=O)NCC1(c2ccccc2)CCN(CC2COc3ccccc3O2)CC1 (configuration not stated)
inactive: dose: 25.0 mg/kg/injection, schedule: Q01DX009 (ip), vehicle: saline 108 % of control | dose: 50.0 mg/kg/injection, schedule: Q01DX009 (ip), vehicle: saline 100 % of control | dose: 100.0 mg/kg/injection, schedule: Q01DX009 (ip), vehicle: saline 93 % of control | [13] 102 % of control

N#CS/C=C/C(N)=O
inactive: dose: 1.0 mg/kg/injection, schedule: Q01DX001 (ip), vehicle: saline 101 % of control | dose: 2.0 mg/kg/injection, schedule: Q01DX001 (ip), vehicle: saline 99 % of control | dose: 2.0 mg/kg/injection, schedule: Q01DX009 (ip), vehicle: saline 103 % of control | dose: 4.0 mg/kg/injection, schedule: Q01DX001 (ip), vehicle: saline 95 % of control | dose: 4.0 mg/kg/injection, schedule: Q01DX009 (ip), vehicle: saline 103 % of control | dose: 8.0 mg/kg/injection, schedule: Q01DX001 (ip), vehicle: saline 94 % of control | dose: 8.0 mg/kg/injection, schedule: Q01DX009 (ip), vehicle: saline 105 % of control

CC12C(c3ccccc3)=C(c3ccccc3)C(C)(C3C(=O)OC(=O)C31)C1C(=O)OC(=O)C12 (configuration not stated)
inactive: [1] 88 % of control | [5] 100 % of control | [9] 100 % of control

BrCC(Br)c1ccccc1 (configuration not stated)
inactive: [4] 91 % of control | [8] 91 % of control | [12] 98 % of control

CCCCCCCCCCCCCCCCCC1=Nc2ccccc2NC(=O)C1
inactive: dose: 100.0 mg/kg/injection, schedule: Q01DX001 (ip), vehicle: carboxymethylcellulose (CMC) 98 % of control | dose: 200.0 mg/kg/injection, schedule: Q01DX001 (ip), vehicle: carboxymethylcellulose (CMC) 98 % of control | dose: 400.0 mg/kg/injection, schedule: Q01DX001 (ip), vehicle: carboxymethylcellulose (CMC) 93 % of control

O=C(Nc1cccc(-c2nc3ccccc3[nH]2)c1)c1ccc(C(=O)Nc2cccc(-c3nc4ccccc4[nH]3)c2)cc1
inactive: dose: 15.0 mg/kg/injection, schedule: Q01DX Z (ip), vehicle: carboxymethylcellulose (CMC) 91 % of control | dose: 30.0 mg/kg/injection, schedule: Q01DX Z (ip), vehicle: carboxymethylcellulose (CMC) 90 % of control | dose: 60.0 mg/kg/injection, schedule: Q01DX Z (ip), vehicle: carboxymethylcellulose (CMC) 87 % of control | dose: 120.0 mg/kg/injection, schedule: Q01DX Z (ip), vehicle: carboxymethylcellulose (CMC) 86 % of control | dose: 125.0 mg/kg/injection, schedule: Q01DX Z (ip), vehicle: water 95 % of control | dose: 250.0 mg/kg/injection, schedule: Q01DX Z (ip), vehicle: water 96 % of control | dose: 500.0 mg/kg/injection, schedule: Q01DX Z (ip), vehicle: water 112 % of control

O=C(c1cccnc1)N1CCCC1
inactive: [2] 113 % of control | [6] 109 % of control | [10] 98 % of control

CC(C)Nc1nc(N)nc2nc(-c3ccc(Cl)cc3)c(-c3ccc(Cl)cc3)nc12
inactive: [14] 100 % of control | [15] 113 % of control | [16] 107 % of control

COc1ccc(C(CCCC(=O)O)C(CC(=O)O)C(=O)O)cc1 (configuration not stated)
inactive: dose: 75.0 mg/kg/injection, schedule: Q04DX003 (ip), vehicle: saline 96 % of control | dose: 150.0 mg/kg/injection, schedule: Q04DX003 (ip), vehicle: saline 103 % of control | dose: 300.0 mg/kg/injection, schedule: Q04DX003 (ip), vehicle: saline 112 % of control

O=C1CCC(=O)N1C(=O)c1ccccc1
inactive: dose: 100.0 mg/kg/injection, schedule: Q01DX Z (ip), vehicle: methylcellulose (MC) 104 % of control | dose: 150.0 mg/kg/injection, schedule: Q01DX Z (ip), vehicle: methylcellulose (MC) 102 % of control | dose: 225.0 mg/kg/injection, schedule: Q01DX Z (ip), vehicle: methylcellulose (MC) 95 % of control

CCCCCCCCC(=O)Nc1cccc(OC(=O)NC)c1
inactive: [17] 94 % of control | [18] 96 % of control | [19] 90 % of control

CC(NP1(=O)OCC(C)(N=Cc2ccccc2)CO1)c1ccccc1 (configuration not stated)
inactive: dose: 50.0 mg/kg/injection, schedule: Q01DX001 (ip), vehicle: saline 104 % of control | [14] 98 % of control | [15] 104 % of control | [16] 95 % of control

O=C(O)CNc1cc(S(=O)(=O)O)cc2cc(S(=O)(=O)O)c(N=Nc3ccc(S(=O)(=O)O)c4ccccc34)c(O)c12
inactive: [14] 98 % of control | [13] 106 % of control | [15] 95 % of control | dose: 200.0 mg/kg/injection, schedule: Q04DX003 (ip), vehicle: saline 90 % of control | [16] 98 % of control | dose: 400.0 mg/kg/injection, schedule: Q04DX003 (ip), vehicle: saline 95 % of control

O=C(NNC(=O)c1ccccc1)c1ccccc1
inactive: [3] 101 % of control | [7] 101 % of control | [11] 101 % of control

C=CCNC(=S)NNC(=S)NNc1ccccc1
inactive: dose: 100.0 mg/kg/injection, schedule: Q01DX009 (ip), vehicle: acetone 98 % of control | [17] 118 % of control | dose: 200.0 mg/kg/injection, schedule: Q01DX009 (ip), vehicle: acetone 90 % of control | [18] 93 % of control | [19] 96 % of control

CCc1cc(C)cc(OC(=O)Nc2cccc(Cl)c2)c1
inactive: dose: 100.0 mg/kg/injection, schedule: Q01DX009 (ip), vehicle: saline with Tween-80 88 % of control | dose: 200.0 mg/kg/injection, schedule: Q01DX009 (ip), vehicle: saline with Tween-80 90 % of control

C=C1c2[nH]c3ccccc3c2C2C(CC)C1CCN2C (configuration not stated)
inactive: dose: 30.0 mg/kg/injection, schedule: Q01DX Z (ip), vehicle: olive oil, sesame oil, peanut oil 102 % of control | dose: 50.0 mg/kg/injection, schedule: Q01DX Z (ip), vehicle: olive oil, sesame oil, peanut oil 98 % of control

CC1(C)OCC(C2OC(=S)OC2C2COC(C)(C)O2)O1 (configuration not stated)
inactive: dose: 50.0 mg/kg/injection, schedule: Q04DX002 (ip), vehicle: Klucel (hydroxypropylcellulose) (HPC) 93 % of control | [3] 98 % of control | [7] 104 % of control
